Biological target: T1, Axl (Homo sapiens, UniProt P30530)
T1 sequence (P30530 26-894): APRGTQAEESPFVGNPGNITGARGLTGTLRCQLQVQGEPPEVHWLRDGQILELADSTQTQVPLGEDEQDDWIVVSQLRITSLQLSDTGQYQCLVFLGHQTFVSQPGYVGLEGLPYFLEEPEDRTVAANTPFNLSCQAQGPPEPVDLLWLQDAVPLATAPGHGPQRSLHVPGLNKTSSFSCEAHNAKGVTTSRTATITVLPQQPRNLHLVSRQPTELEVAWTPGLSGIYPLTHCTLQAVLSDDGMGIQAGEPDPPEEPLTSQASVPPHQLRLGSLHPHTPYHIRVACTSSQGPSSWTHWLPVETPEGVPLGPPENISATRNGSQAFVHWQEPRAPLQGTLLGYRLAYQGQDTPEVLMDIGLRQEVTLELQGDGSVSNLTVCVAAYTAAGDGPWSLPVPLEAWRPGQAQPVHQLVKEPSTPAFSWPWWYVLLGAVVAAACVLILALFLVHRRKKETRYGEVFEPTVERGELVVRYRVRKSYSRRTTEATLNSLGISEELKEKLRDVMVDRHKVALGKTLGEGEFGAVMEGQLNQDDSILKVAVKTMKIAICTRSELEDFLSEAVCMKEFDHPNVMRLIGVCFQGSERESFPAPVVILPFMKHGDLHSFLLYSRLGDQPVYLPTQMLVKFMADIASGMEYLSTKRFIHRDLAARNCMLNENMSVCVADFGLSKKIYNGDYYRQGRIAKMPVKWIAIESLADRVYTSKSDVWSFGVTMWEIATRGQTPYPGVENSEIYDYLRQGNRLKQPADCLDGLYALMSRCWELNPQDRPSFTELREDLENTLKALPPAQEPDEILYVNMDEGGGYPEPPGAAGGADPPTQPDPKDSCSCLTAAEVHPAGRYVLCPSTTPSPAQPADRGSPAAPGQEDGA
Assay: Axl NanoBRET intracellular kinase assay (intracellular binding, Cell Binding)
Set-up: host or cells: HEK-293
Conditions: HEK-293 cells transfected with Axl-NanoLuc fusion vector; 0.35 μM K-5 NanoBRET tracer
Procedure, shortened: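 Intracellular binding measured as loss of BRET (610 nm/450 nm) when compounds displace 0.35 μM K-5 tracer from Axl-NanoLuc in transfected HEK-293 cells.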

IC50 [nM] | SMILES
< 100 | CC(C)(O)c1ccc(-c2n[nH]c3ncc(-c4ccc5c(c4)CCC(N4CCCC4)CC5)cc23)cn1 (centres unmarked) [Example 9, 2-(5-{5-[7-(Pyrrolidin-1-yl)-6,7,8,9-tetrahydro-5H-benzo[7]annulen-2-yl]-1H-pyrazolo[3,4-b]pyridin-3-yl}pyridin-2-yl)propan-2-ol]
< 100 | FC1CN(c2ccc(-c3c[nH]c4ncc(-c5ccc6c(c5)CC[C@@H](N5C7COCC5C7)CC6)cc34)cc2)C1 [Example 127, 6-[(7S)-2-{3-[4-(3-fluoroazetidin-1-yl)phenyl]-1H-pyrrolo[2,3-b]pyridin-5-yl}-6,7,8,9-tetrahydro-5H-benzo[7]annulen-7-yl]-3-oxa-6-azabicyclo[3.1.1]heptane]
> 1000 | C[C@@H]1CCCN1C1(C)CCc2ccc(-c3cnc4[nH]nc(-c5ccc(S(=O)(=O)C(F)(F)F)cc5)c4c3)cc2CC1 (stereo partly drawn) [Example 8, (2R)-2-Methyl-1-{7-methyl-2-[3-(4-trifluoromethanesulfonylphenyl)-1H-pyrazolo[3,4-b]pyridin-5-yl]-6,7,8,9-tetrahydro-5H-benzo[7]annulen-7-yl}pyrrolidine]
< 100 | COc1cc(-c2n[nH]c3ncc(-c4ccc5c(c4)CCC(C)(N4CCC[C@H]4C)CC5)cc23)ccc1C(N)=O (stereo partly drawn) [Example 53, 2-Methoxy-4-(5-(7-methyl-7-((R)-2-methylpyrrolidin-1-yl)-6,7,8,9-tetrahydro-5H-benzo[7]annulen-2-yl)-1H-pyrazolo[3,4-b]pyridin-3-yl)benzamide]
100 to 1000 | O=S(=O)(c1ccc(-c2n[nH]c3ncc(-c4ccc5c(c4)CCN(C4CCOCC4)CC5)cc23)cc1)C1CC1 [Example 26, 7-{3-[4-(Cyclopropanesulfonyl)phenyl]-1H-pyrazolo[3,4-b]pyridin-5-yl}-3-(oxan-4-yl)-2,3,4,5-tetrahydro-1H-3-benzazepine]
< 100 | C[C@@H]1CCCN1C1CCc2ccc(-c3cnc4[nH]nc(-c5ccc(S(N)(=O)=O)c(Cl)c5)c4c3)cc2CC1 (stereo partly drawn) [Example 94, 2-Chloro-4-(5-(7-((R)-2-methylpyrrolidin-1-yl)-6,7,8,9-tetrahydro-5H-benzo[7]annulen-2-yl)-1H-pyrazolo[3,4-b]pyridin-3-yl)benzenesulfonamide]
< 100 | COCCOc1ccc(-c2n[nH]c3ncc(-c4ccc5c(c4)CC[C@@H](N4C6COCC4C6)CC5)cc23)cc1 [Example 123, 6-[(7S)-2-{3-[4-(2-methoxyethoxy)phenyl]-2H-pyrazolo[3,4-b]pyridin-5-yl}-6,7,8,9-tetrahydro-5H-benzo[7]annulen-7-yl]-3-oxa-6-azabicyclo[3.1.1]heptane]
< 100 | CC(C)(C)S(=O)(=O)c1ccc(-c2n[nH]c3ncc(-c4ccc5c(c4)CC[C@@H](N4C6COCC4C6)CC5)cc23)cc1 [Example 124, 6-[(7S)-2-{3-[4-(2-methylpropane-2-sulfonyl)phenyl]-2H-pyrazolo[3,4-b]pyridin-5-yl}-6,7,8,9-tetrahydro-5H-benzo[7]annulen-7-yl]-3-oxa-6-azabicyclo[3.1.1]heptane]
< 100 | Cc1cc(-c2n[nH]c3ncc(-c4ccc5c(c4)CC[C@@H](N4CCCC4)CC5)cc23)cc(C)c1C(=O)N1CCNCC1 [Example 55, 1-(2,6-Dimethyl-4-{5-[(7S)-7-(pyrrolidin-1-yl)-6,7,8,9-tetrahydro-5H-benzo[7]annulen-2-yl]-1H-pyrazolo[3,4-b]pyridin-3-yl}benzoyl)piperazine]
100 to 1000 | CS(=O)(=O)c1ccc(-c2n[nH]c3ncc(-c4ccc5c(c4)CCN(C4CCCC4)CC5)cc23)cc1F [Example 32, 3-Cyclopentyl-7-(3-(3-fluoro-4-(methylsulfonyl)phenyl)-1H-pyrazolo[3,4-b]pyridin-5-yl)-2,3,4,5-tetrahydro-1H-benzo[d]azepine]
100 to 1000 | O=C([C@H]1CCCN1)N1CCc2ccc(-c3cnc4[nH]nc(-c5ccc(S(=O)(=O)C6CC6)cc5)c4c3)cc2CC1 [Example 113, 7-{3-[4-(Cyclopropanesulfonyl)phenyl]-1H-pyrazolo[3,4-b]pyridin-5-yl}-3-[(2R)-pyrrolidine-2-carbonyl]-2,3,4,5-tetrahydro-1H-3-benzazepine]
